The record followed here is US10689399B2, “Substituted 3,4,5,6,8,10,14,14a-octahydro-2h-2,6-methanopyrido[1′,2′:4,5]pyrazino[2,1-b][1,3]oxazocines and methods for treating viral infections” (Gilead Sciences, Inc., priority 2012, dated 2020).

For this assay, the system named is HIV-IIIb. The experiment in a line: Antiviral assay in MT4 cells. The assay is classed as cell-based. The settings on record: Human immunodeficiency virus 1, IIIB, MT4, 120 h, MT4 cells infected with HIV-IIIb, 5 days, CellTiter-Glo; read-out: EC50 nM in MT-4. In short, it runs like this: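 MT4 cells pre-infected with HIV-IIIb (0.004 m.o.i.) at 37 °C, or mock-infected, then seeded at 2000 cells/well onto 3-fold serially diluted compound (10 concentrations, quadruplicate) in RPMI 1640 with 10% FBS. After 5 days at 37 °C, cell viability read by CellTiter-Glo luminescence.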
With `O=C(NCc1ccc(F)cc1)c1cn2c(c(O)c1=O)C(=O)N1[C@@H]3CC[C@@H](C3)O[C@H]1C2` [Compound 15, (2 S,5R,13aS)—N-(4-fluorobenzyl)-8-hydroxy-7,9-dioxo-2,3,4,5,7,9,13,13a-octahydro-2,5-methanopyrido[1′,2′:4,5]pyrazino[2,1-b][1,3]oxazepine-10-carboxamide], the EC50 is 2.2 nM. The value for `O=C(NCc1ccc(F)cc1F)c1cn2c(c(O)c1=O)C(=O)N1[C@@H]3COC[C@@H](C3)O[C@H]1C2` (racemic) [50/51, N-(2,4-difluorobenzyl)-9-hydroxy-8,10-dioxo-2,3,5,6,8,10,14,14a-octahydro-2,6-methanopyrido[1′,2′:4,5]pyrazino[2,1-b][1,6,3]dioxazocine-11-carboxamide] was 1.9 nM; that for `O=C(NCc1ccc(F)c(Cl)c1F)c1cn2c(c(O)c1=O)C(=O)N1[C@H]3CC[C@H](C3)[C@@H]1C2` [Compound 69, (1R,4S,12aR)—N-(3-chloro-2,4-difluorobenzyl)-7-hydroxy-6,8-dioxo-1,2,3,4,6,8,12,12a-octahydro-1,4-methanodipyrido[1,2-a:1′,2′-d]pyrazine-9-carboxamide] was 1.9 nM. The value for `O=C(NCc1cc(Cl)c(F)cc1F)c1cn2c(c(O)c1=O)C(=O)N1[C@H]3CC[C@H](C3)[C@@H]1C2` [Compound 80, (1R,4S,12aR)—N-(5-chloro-2,4-difluorobenzyl)-7-hydroxy-6,8-dioxo-1,2,3,4,6,8,12,12a-octahydro-1,4-methanodipyrido[1,2-a:1′,2′-d]pyrazine-9-carboxamide] was 4.6 nM; that for `O=C(NCc1c(F)cc(F)cc1F)c1cn2c(c(O)c1=O)C(=O)N1[C@H]3CC[C@H](CC3)[C@@H]1C2` [Compound 102, (1S,4S,12aR)-7-hydroxy-6,8-dioxo-N-(2,4,6-trifluorobenzyl)-1,2,3,4,6,8,12,12a-octahydro-1,4-ethanodipyrido[1,2-a:1′,2′-d]pyrazine-9-carboxamide] was 2.3 nM; that for `O=C(NCc1c(F)cc(F)cc1F)c1cn2c(c(O)c1=O)C(=O)N1[C@H]3CC[C@H](C3)[C@H]1C2` [Compound 55, (1R,4S,12aS)-7-hydroxy-6,8-dioxo-N-(2,4,6-trifluorobenzyl)-1,2,3,4,6,8,12,12a-octahydro-1,4-methanodipyrido[1,2-a:1′,2′-d]pyrazine-9-carboxamide] was 1.5 nM. Turning to `C[C@@H](NC(=O)c1cn2c(c(O)c1=O)C(=O)N1[C@H]3CC[C@H](C3)[C@@H]1C2)c1ccc(F)cc1F` [Compound 43, (12aR)—N—((R)-1-(2,4-difluorophenyl)ethyl)-7-hydroxy-6,8-dioxo-1,2,3,4,6,8,12,12a-octahydro-1,4-methanodipyrido[1,2-a:1′,2′-d]pyrazine-9-carboxamide], the half-maximal effective concentration (EC50) amounted to 6.9 nM.

With `O=C(NCc1ccc(F)cc1OC1CC1)c1cn2c(c(O)c1=O)C(=O)N1[C@H]3CC[C@H](C3)O[C@@H]1C2` [Compound 53, (2R,5S,13aR)—N-(2-cyclopropoxy-4-fluorobenzyl)-8-hydroxy-7,9-dioxo-2,3,4,5,7,9,13,13a-octahydro-2,5-methanopyrido[1%2′: 4,5]pyrazino[2,1-b][1,3]oxazepine-10-carboxamide], the 50% effective concentration (EC50) is 14.3 nM.

Consider `C[C@H](NC(=O)c1cn2c(c(O)c1=O)C(=O)N1[C@H]3CC[C@H](C3)O[C@@H]1C2)c1ccc(F)cc1F` [Compound 14, (2R,5S,13aR)—N—((S)-1-(2,4-difluorophenyl)ethyl)-8-hydroxy-7,9-dioxo-2,3,4,5,7,9,13,13a-octahydro-2,5-methanopyrido[1′,2′:4,5]pyrazino[2,1-b][1,3]oxazepine-10-carboxamide], for which the EC50 was 65.5 nM.
